According to US20230094922A1, “METHODS OF THERAPEUTIC PROGNOSTICATION” (GENETIKAPLUS LTD., priority 2020, published 2023):

System: iPSC-derived cortical neurons
Assay type: cell-based
Conditions: responders vs non-responders after 10 μM Bupropion

CC(NC(C)(C)C)C(=O)c1cccc(Cl)c1 (stereo not drawn) [Bupropion, 3-Chloro-N-tert-butyl-β-keto-α-methylphenethylamin]
logFC PARP6 (NS): −0.681 | logFC PCBP4 (NS): −1.293 | logFC PCDH10 (NS): −1.015 | logFC PCSK1N (NS): −1.46 | logFC PDYN (NS): −1.613 | logFC PGM2L1 (NS): −1.008 | logFC PHACTR3 (NS): −1.439 | logFC PID1 (NS): −1.455 | logFC PIK3R1 (NS): −0.9783 | logFC PITPNC1 (NS): −0.8298 | logFC PITPNM2 (NS): −0.7259 | logFC PKIA (NS): −1.194 | logFC PLPPR2 (NS): −0.974 | logFC PNMA3 (NS): −1.221 | logFC PPEF1 (NS): −1.59 | logFC PPFIA2 (NS): −1.898 | logFC PPFIA3 (NS): −0.735 | logFC PPM1K (NS): −0.7077 | logFC PPP1R13B (NS): −1.191 | logFC PPP2R2B (NS): −1.116 | logFC PPP2R2C (NS): −1.735 | logFC PPP2R5B (NS): −1.051 | logFC PRDM8 (NS): −2.418 | logFC PSD (NS): −1.027 | logFC PSD2 (NS): −1.447 | logFC PTPRH (NS): −1.255 | logFC PTPRN2 (NS): −1.272 | logFC PTPRR (NS): −1.517 | logFC RAB3A (NS): −1.354 | logFC RAB3C (NS): −1.236 | logFC RAB6B (NS): −1.225 | logFC RAB33A (NS): −1.51 | logFC RAP1GAP (NS): −0.7191 | logFC RASGEF1B (NS): −1.168 | logFC RBFOX1 (NS): −1.576 | logFC RBFOX3 (NS): −1.575 | logFC RBP4 (NS): −2.21 | logFC RCAN2 (NS): −1.602 | logFC REM2 (NS): −1.186 | logFC RETREG2 (NS): −0.5717 | logFC RGR (NS): −2.072 | logFC RGS7 (NS): −1.689 | logFC RHBDL3 (NS): −1.325 | logFC RHOBTB2 (NS): −0.7317 | logFC RIMS1 (NS): −1.83 | logFC RIT2 (NS): −2.318 | logFC RNF152 (NS): −1.135 | logFC RNF165 (NS): −0.9556 | logFC RPS6KA2 (NS): −0.8831 | logFC RTN1 (NS): −1.456 | logFC RUFY3 (NS): −0.7072 | logFC RUNDC3B (NS): −1.512 | logFC RUNX1T1 (NS): −1.916 | logFC RXRG (NS): −1.776 | logFC SAMD14 (NS): −1.111 | logFC SARM1 (NS): −1.209 | logFC SCAPER (NS): −0.7606 | logFC SCG2 (NS): −1.691 | logFC SCG3 (NS): −1.431 | logFC SCN1A (NS): −1.947 | logFC SCN2A (NS): −1.841 | logFC SCN3B (NS): −1.722 | logFC SCN7A (NS): −1.457 | logFC SCN9A (NS): −1.803 | logFC SEPTIN3 (NS): −1.333 | logFC SERP2 (NS): −1.449 | logFC SEZ6L (NS): −1.45 | logFC SEZ6L2 (NS): −0.7768 | logFC SHANK1 (NS): −1.292 | logFC SHISAL1 (NS): −1.498 | logFC SHISAL2A (NS): −1.16 | logFC SIDTI (NS): −2.103 | logFC SIT1 (NS): −1.927 | logFC SLC4A8 (NS): −0.8668 | logFC SLC7A14 (NS): −1.705 | logFC SLC8A3 (NS): −1.496 | logFC SLC17A6 (NS): −2.069 | logFC SLC22A15 (NS): −0.9589 | logFC SLC22A23 (NS): −1.148 | logFC SLC37A1 (NS): −1.052 | logFC SLC38A4 (NS): −1.273 | logFC SLCO2B1 (NS): −1.491 | logFC SLCO5A1 (NS): −1.211 | logFC SLITRK1 (NS): −1.312 | logFC SMAP2 (NS): −0.8196 | logFC SMPD3 (NS): −1.445 | logFC SNAP91 (NS): −1.605 | logFC SNCB (NS): −1.524 | logFC SNCG (NS): −1.396 | logFC SNPH (NS): −1.134 | logFC SNTG1 (NS): −2.048 | logFC SPNS2 (NS): −1.211 | logFC SPTBN4 (NS): −1.122 | logFC SRRM3 (NS): −1.175 | logFC SSTR2 (NS): −1.449 | logFC ST8SIA2 (NS): −1.153 | logFC STK32B (NS): −1.644 | logFC STX1B (NS): −0.9907 | logFC STXBP1 (NS): −1.033 | logFC SV2A (NS): −0.9341 | logFC SYN1 (NS): −1.543 | logFC SYNGR1 (NS): −0.8271 | logFC SYP (NS): −1.709 | logFC SYT1 (NS): −1.058 | logFC SYT7 (NS): −1.505 | logFC SYT13 (NS): −1.444 | logFC TAC1 (NS): −1.101 | logFC TAFA1 (NS): −2.193 | logFC TAGLN3 (NS): −1.002 | logFC TANC2 (NS): −0.7278 | logFC TBC1D24 (NS): −0.8527 | logFC TERF2IP (NS): −0.7455 | logFC TH (NS): −1.664 | logFC THRB (NS): −2.357 | logFC TIMP2 (NS): −0.878 | logFC TLCD3B (NS): −1.431 | logFC TMEM59L (NS): −0.8819 | logFC TMEM121B (NS): −0.8958 | logFC TMEM132B (NS): −1.025 | logFC TMEM151A (NS): −1.522 | logFC TMEM151B (NS): −1.463 | logFC TMEM178A (NS): −0.904 | logFC TMEM246 (NS): −1.159 | logFC TOM1L2 (NS): −0.7199 | logFC TP53I11 (NS): −0.8407 | logFC TP53INP2 (NS): −1.177 | logFC TPPP (NS): −1.04 | logFC TRIB2 (NS): −0.7077 | logFC TRIM9 (NS): −1.352 | logFC TSPAN7 (NS): −1.098 | logFC TSPYL5 (NS): −1.843 | logFC TTBK1 (NS): −1.374 | logFC TUBB2B (NS): −0.7583 | logFC TVP23A (NS): −1.064 | logFC VPS26B (NS): −0.6245 | logFC VSTM2A (NS): −1.971 | logFC VWA5B2 (NS): −1.111 | logFC VXN (NS): −1.527 | logFC WDR47 (NS): −0.8343 | logFC WDR82 (NS): −0.4862 | logFC WNK2 (NS): −0.7608 | logFC WSB2 (NS): −0.8644 | logFC ZC3HAV1L (NS): −2.186 | logFC ZDHHC22 (NS): −1.455 | logFC ZFP3 (NS): −1.933 | logFC ZNF385A (NS): −0.8795 | logFC ZNF439 (NS): −2.201 | logFC ABCC6 (p<0.01): −0.5461 | logFC ADAMTS4 (p<0.01): −0.723 | logFC ADAMTS8 (p<0.01): −1.658 | logFC ADAMTS15 (p<0.01): −1.743 | logFC ADAMTSL1 (p<0.01): −1.46 | logFC ADAMTSL2 (p<0.01): −1.833 | logFC ALDOC (p<0.01): −0.6635 | logFC APOL2 (p<0.01): −0.6452 | logFC AQP6 (p<0.01): −1.137 | logFC ARHGAP23 (p<0.01): −0.5891 | logFC ARHGEF28 (p<0.01): −0.916 | logFC ARL17B (p<0.01): −1.232 | logFC ASPN (p<0.01): −3.695 | logFC BDKRB2 (p<0.01): −1.475 | logFC C1R (p<0.01): −1.32 | logFC C5orf63 (p<0.01): −1.211 | logFC CABP7 (p<0.01): −1.06 | logFC CACNA1H (p<0.01): −0.5137 | logFC CCDC183 (p<0.01): −0.5281 | logFC CCDC187 (p<0.01): −1.023 | logFC CCER2 (p<0.01): −0.8431 | logFC CD151 (p<0.01): −0.4377 | logFC CDKN1C (p<0.01): −0.6211 | logFC CEMIP (p<0.01): −2.321 | logFC CHST8 (p<0.01): −1.474 | logFC COL1A1 (p<0.01): −1.88 | logFC COL6A1 (p<0.01): −0.5639 | logFC COL8A2 (p<0.01): −2.755 | logFC COL15A1 (p<0.01): −2.224 | logFC CPA4 (p<0.01): −2.791 | logFC CPNE5 (p<0.01): −0.937 | logFC CXCL2 (p<0.01): −1.783 | logFC CXCL6 (p<0.01): −2.412 | logFC CXCL8 (p<0.01): −3.086 | logFC DHRS3 (p<0.01): −1.126 | logFC DRGX (p<0.01): −4.337 | logFC DYRK1B (p<0.01): −0.3984 | logFC EFEMP2 (p<0.01): −0.7929 | logFC EGFLAM (p<0.01): −1.798 | logFC ELN (p<0.01): −2.048 | logFC EPHB3 (p<0.01): −0.4956 | logFC EYA2 (p<0.01): −0.955 | logFC FAM20C (p<0.01): −0.6923 | logFC FBLN5 (p<0.01): −1.918 | logFC FMOD (p<0.01): −2.269 | logFC FNDC5 (p<0.01): −0.7008 | logFC FRMPD1 (p<0.01): −2.303 | logFC GAA (p<0.01): −0.4856 | logFC GALNT14 (p<0.01): −1.152 | logFC GLIS2 (p<0.01): −0.5025 | logFC GPBAR1 (p<0.01): −0.9131 | logFC HCN1 (p<0.01): −2.181 | logFC HES6 (p<0.01): −1.04 | logFC HMX1 (p<0.01): −1.478 | logFC HOXB5 (p<0.01): −2.739 | logFC HS3ST2 (p<0.01): −1.228 | logFC HS6ST1 (p<0.01): −0.6264 | logFC IAH1 (p<0.01): −0.789 | logFC IGFBP5 (p<0.01): −0.9814 | logFC IL17RC (p<0.01): −0.5333 | logFC INHBB (p<0.01): −1.748 | logFC INMT (p<0.01): −1.061 | logFC IRF2BPL (p<0.01): −0.3835 | logFC ISLR (p<0.01): −1.646 | logFC ITPRIP (p<0.01): −0.5931 | logFC JOSD2 (p<0.01): −0.7377 | logFC KCNA1 (p<0.01): −3.416 | logFC KCNJ5 (p<0.01): −1.028 | logFC KDM4B (p<0.01): −0.331 | logFC KHDC1 (p<0.01): −0.7724 | logFC KIF26A (p<0.01): −0.5135 | logFC KLHL35 (p<0.01): −1.144 | logFC LGALS3BP (p<0.01): −0.9602 | logFC LOXL1 (p<0.01): −0.6236 | logFC LRFN5 (p<0.01): −0.6816 | logFC LURAP1L (p<0.01): −1.086 | logFC LYPD1 (p<0.01): −0.7703 | logFC MAB21L2 (p<0.01): −0.9329 | logFC MAFB (p<0.01): −0.573 | logFC MCC (p<0.01): −0.8548 | logFC MGP (p<0.01): −2.67 | logFC MKX (p<0.01): −1.878 | logFC MX2 (p<0.01): −1.618 | logFC NDUFA4L2 (p<0.01): −0.8379 | logFC NFIX (p<0.01): −2.446 | logFC NNMT (p<0.01): −2.326 | logFC NPR2 (p<0.01): −0.5942 | logFC NTNG2 (p<0.01): −1.161 | logFC OGFR (p<0.01): −0.318 | logFC OLFML2B (p<0.01): −1.03 | logFC OPRK1 (p<0.01): −0.939 | logFC OPRM1 (p<0.01): −1.985 | logFC OPTN (p<0.01): −0.44 | logFC OTOG (p<0.01): −1.855 | logFC P4HA3 (p<0.01): −2.239 | logFC PADI2 (p<0.01): −1.485 | logFC PALM (p<0.01): −0.581 | logFC PARP10 (p<0.01): −1.041 | logFC PENK (p<0.01): −1.977 | logFC PHOX2B (p<0.01): −2.192 | logFC PIEZO2 (p<0.01): −2.464 | logFC PIRT (p<0.01): −3.199 | logFC PLAC9 (p<0.01): −1.585
